Measured values published in PMC10714399, “Open Source Antibiotics: Simple Diarylimidazoles Are Potent against Methicillin-Resistant Staphylococcus aureus” (ACS Infectious Diseases, 2023).
≈ marks a conversion by molar mass, not a printed value. Where “and” joins values, the source holds several entries; their conditions need not be identical. Equal values may be shown once. Where a name gives a salt, the structure may show the parent alone. Read-outs that look alike come from different tables or passages of the source.

Tests used:
[1] = test system: Staphylococcus aureus ATCC 43300 MRSA; experiment: CO-ADD antibacterial assay (growth inhibition, MIC), MRSA; format: cell-based
Protocol: Hit Confirmation of active compounds by whole cell growth inhibition assays was conducted as an 8-point dose response to determine the Minimum Inhibitory Concentration (MIC), in duplicate (n=2). The inhibition of growth is measured against those microorganisms that […]
Included in the Hit Confirmation were 5 bacteria: Escherichia coli, Klebsiella pneumoniae, Acinetobacter baumannii, Pseudomonas aeruginosa and Staphylococcus aureus, and 2 fungi Candida albicans and Cryptococcus neoformans. […]
Assay Parameters Bacteria Fungi HEK293 Haemolysis […]
Duplicate (n=2) Duplicate (n=2) Duplicate (n=2) Duplicate (n=2)
QC Control MIC: Control MIC: Control CC50: Control HC10:
Non-Binding Non-Binding TC, 384-well Polypropylene
Plates Surface (NBS), Surface (NBS), black wall/clear 384-well and 384-well plate 384-well plate bottom polystyrene 384-
Cation-adjusted Yeast Nitrogen DMEM
Media Mueller Hinton Base supplemented 0.9% NaCl
Hit Confirmation outcomes are detailed in individual Project reports, personalised for each Project Submission for each CO-ADD user.
Please see your data sheet with file extension P0XXX_HC_data.xlsx, for example CO-ADD Project P0100, P0100_HC_data.xlsx
Study: HC_data ID: HC-Procedures & Materials
Date: Last updated June 2018 Confidential Page 3 of 11
(1 picture or pasted object on this page, not shown here)
Samples were provided by the collaborator and stored frozen at -20 °C. Samples were prepared in DMSO and water to a final testing concentration of 32 µg/mL or 20 µM (unless otherwise indicated in the data sheet) and serially diluted 1:2 fold for 8 times. Each sample concentration was prepared in 384-well plates, non-binding surface plate (NBS; Corning 3640) for each bacterial/fungal strain, tissue-culture treated (TC-treated; Corning 3712/3764) black for mammalian cell types and polypropylene 384-well (PP; Corning 3657) for haemolysis assays, all in duplicate (n=2), and keeping the final DMSO concentration to a maximum of 0.5%. All the sample preparation was done using liquid handling robots. […]
detailed in the Data sheet for the individual Project.
All bacteria were cultured in Cation-adjusted Mueller Hinton broth (CAMHB) at 37 °C overnight. A sample of each culture was then diluted 40-fold in fresh broth and incubated at 37 °C for 1.5-3 h. The resultant mid-log phase cultures were diluted (CFU/mL measured by OD600), then added to each well of the compound containing plates, giving a cell density of 5×10^5 CFU/mL and a total volume of 50 µL. All the plates were covered and incubated at 37 °C for 18 h without shaking.
Inhibition of bacterial growth was determined measuring absorbance at 600 nm (OD600), using a Tecan M1000 Pro monochromator plate reader. The percentage of growth inhibition was calculated for each well, using the negative control (media only) and positive control (bacteria without inhibitors) on the same plate as references.
The percentage of growth inhibition was calculated for each well, using the negative control (media only) and positive control (bacteria without inhibitors) on the same plate. The MIC […]
by an inhibition ≥ 80%. In addition, the maximal percentage of growth inhibition is reported as DMax, indicating any compounds with partial activity.
Date: Last updated June 2018 Confidential Page 5 of 11
Material Code Brand/Supplier Cat No.
Compound preparation plate, Polypropylene PP Corning 3364
Assay Plates – Antimicrobial
Non-binding surface NBS 384w Corning 3640
Assay Plates – Cytotoxicity
Tissue culture treated Black/Clear bottom 384w Corning 3712
Assay Plates - Haemolysis PP-Haem Corning 3657 […]
Growth media - bacteria CAMHB Bacto Laboratories 212322
Culture agar - fungi YPD Becton Dickinson 242720
Growth media - fungi YNB Becton Dickinson 233520
Resazurin Sigma-Aldrich R7017
Dulbecco's Modified Eagle Medium DMEM Life Technologies 11995-073
Foetal Bovine Serum FBS Bovogen FFBS-500
0.9% NaCl Saline Baxter AHF7124
Sample Name Sample ID MW Conc. Solvent Source […]

[2] = test system: MRC-5SV2 (human lung fibroblast cell line); experiment: Toxicity against MRC-5SV2; format: cell-based; conditions: MRC5 cells
Protocol: (§1) ADME and toxicity for compounds were measured according to procedures outlined in the manuscript submitted in parallel to this one;2 other procedures were used for those compounds analysed by Monash University (in vitro ADME) or UCL (toxicity), both described in the main

[3] = test system: Staphylococcus aureus NCTC 13373 (mecA-positive; methicillin-resistant); experiment: In vitro antibacterial activity, MIC (UCL School of Pharmacy assay), MRSA; format: cell-based; conditions: Staphylococcus aureus
Method in brief: (§2)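 Each organism was taken from overnight tryptone soya agar, suspended in PBS at A600 0.1, diluted 1:100 in isosensitest broth and added to serially diluted compound (32 to 0.03 μg/mL).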

[4] = Human plasma protein binding (PPB); format: in vitro ADME; conditions: human, plasma
LogD7.4 (Chrom Log D) = format: physicochemical
Text: To guide our initial SAR exploration work, we obtained liver microsomal intrinsic clearance data for 5 of the 18 compounds assayed by CO-ADD (Supporting Information - CDCO Report and Supporting Information - Biology). We then acquired intrinsic clearance (CLint), plasma protein binding (PPB), and solubility data on further compounds throughout the SAR campaign (Supporting Information - Biology, Tables S3 and S4). […] The more polar compounds (lower LogD) had reduced PPB and were more metabolically stable.
Table S4. ADME and Pharmacokinetics: compounds only appearing in the Supplementary […]
MRSA Aqueous HLM CLint Rat Hep CLint
Cmpd MIC Solubility Human PPB (%) (µL/min/mg (µL/min/10x6 LogD7.4
(µg/mL) (µM) protein) cells)
as §1

Aqueous solubility = format: physicochemical; conditions: for solubility: thermodynamic from solid
[5] = test system: S. aureus ATCC 25923 (methicillin-susceptible); experiment: In vitro antibacterial activity, MIC (UCL), MSSA; format: cell-based, Staphylococcus aureus; conditions: Staphylococcus aureus
Method in brief: as §2

[6] = Rat hepatocyte intrinsic clearance; format: in vitro ADME
[7] = Human liver microsome intrinsic clearance; format: in vitro ADME
[8] = test system: PMM (primary mouse macrophages); experiment: Toxicity against PMM; format: cell-based; conditions: PMM
Protocol: as §1

[9] = test system: Enterococcus faecalis ATCC 51299 (vanA-positive; vancomycin-resistant); experiment: In vitro antibacterial activity, MIC (UCL), VRE; format: cell-based
Method in brief: as §2

VSE = experiment: In vitro antibacterial activity, MIC, VSE; format: cell-based; conditions: read-out: VSE MIC (UCL)
[10] = UCL assay, read-out: MRSA MIC (ug/mL) (UCL)
[11] = human plasma, NEU, read-out: Human PPB (%) (NEU) (converted)
[12] = chromatographic system (Chrom Log D), pH 7.4, NEU, read-out: LogD 7.4 (NEU)
[13] = NEU, read-out: Aqueous Solubility (uM) (NEU)
[14] = UCL assay, read-out: MSSA MIC (ug/mL) (UCL)
[15] = rat hepatocytes, NEU, read-out: Rat Hep CLint (uL/min/10x6 cells) (NEU)
[16] = human plasma, NEU, read-out: Human PPB (NEU) (converted)
[17] = NEU, read-out: Aqueous Solubility (NEU)
[18] = rat hepatocytes, NEU, read-out: Rat Hep CLint (NEU)
[19] = human liver microsomes, NEU, read-out: HLM CLint (NEU)

chromatographic logD (LogD7.4 (Chrom Log D); [12])	MIC ([1]; read-out: MRSA MIC (CO-ADD)) [µg/mL]	MIC ([3]; UCL, read-out: MRSA MIC (UCL)) [µg/mL]	MIC ([9]; read-out: VRE MIC (UCL)) [µg/mL]	fraction unbound [4, 16]	solubility (Aqueous solubility; [17]) [µM]	MIC ([5]; read-out: MSSA MIC (UCL)) [µg/mL]	hepatocyte CLint [6, 18] [µL/min/1e6 cells]	microsomal CLint [7, 19] [µL/min/mg]	SMILES	further results
									CN[C@H](CC(C)C)C(=O)N[C@H]1C(=O)N[C@@H](CC(N)=O)C(=O)N[C@H]2C(=O)N[C@H]3C(=O)N[C@H](C(=O)N[C@H](C(=O)O)c4cc(O)cc(O)c4-c4cc3ccc4O)[C@H](O)c3ccc(c(Cl)c3)Oc3cc2cc(c3O[C@@H]2O[C@H](CO)[C@@H](O)[C@H](O)[C@H]2O[C@H]2C[C@](C)(N)[C@H](O)[C@H](C)O2)Oc2ccc(cc2Cl)[C@H]1O [Vancomycin - HCl, Vancomycin - HCL, reference compound]	MIC ([1]; read-out: MIC MRSA (CO-ADD)): 1 µg/mL
2.4									CS(=O)(=O)c1ccc2nc(-c3ccccn3)c(Nc3ccc(F)cc3)n2c1 [OSA_001020]	MRC5 TC50 [2]: 64 µM; MIC [3, 10]: > 32 µg/mL; fraction unbound [4, 11]: 0.11; solubility (Aqueous solubility; [13]): 5 µM (≈ 1.91 µg/mL); MIC [5, 14]: > 32 µg/mL; hepatocyte CLint [6, 15]: > 300 µL/min/1e6 cells; HLM CLint (uL/min/mg protein) (NEU) ([7]; human liver microsomes, NEU): 92 uL/min/mg protein; PMM TC50 [8]: 32 µM
	32 (≈ 105 µM)								c1ccc(-c2nc3n(c2-c2ccc4c(c2)OCC4)CCC3)nc1 [OSA_000828]	
	> 32								c1ccc(-c2nc3ncccn3c2-c2ccc3c(c2)OCO3)nc1 [OSA_000815]	
3.3		8 (≈ 26.3 µM)	32 (≈ 105 µM)	0.017	0.5 (≈ 0.152 µg/mL)	16 (≈ 52.6 µM)	151	148	Fc1ccc(Nc2c(-c3ccccn3)nc3ccccn23)cc1 [OSA_000987]	MRC5 TC50 [2]: 7.65 µM and 6.04 µM; MIC (VSE): 32 µg/mL (≈ 105 µM)
3.1		2 (≈ 5.29 µM)	8 (≈ 21.1 µM)	< 0.033	12 (≈ 4.54 µg/mL)	8 (≈ 21.1 µM)	> 300	51.2	COc1ccnc(-c2nc3cc(OC)ccn3c2N(C)c2ccc(F)cc2)c1 [OSA_001000]	MIC (VSE): 8 µg/mL (≈ 21.1 µM)
2.5		> 32	> 32	0.035	37 (≈ 12.5 µg/mL)		12.9	124	COc1ccn2c(-c3cccc(Cl)n3)c(-c3ccccn3)nc2c1 [OSA_000857]	MRC5 TC50 [2]: 24.2 µM; PMM TC50 [8]: 64 µM
3.1		4 (≈ 12.5 µM)	8 (≈ 25 µM)	0.0055					Cc1ccc(-c2c(-c3ccccn3)nc3cc(Cl)ccn23)cc1 [OSA_000978]	Aqueous Solubility (NEU) (Aqueous solubility; NEU): 5 µM; Rat Hep CLint (NEU) ([6]; rat hepatocytes, NEU): 104 uL/min/10x6 cells; HLM CLint (NEU) ([7]; human liver microsomes, NEU): 65.6 uL/min/mg protein
	> 32								c1cc(-c2nc3n(c2-c2ccc4c(c2)OCO4)CCC3)ccn1 [OSA_000817]	
	4 (≈ 12.6 µM)								c1ccc(-c2nc3n(c2-c2ccc4ccsc4c2)CCC3)nc1 [OSA_000830]	
	16 (≈ 54.9 µM)								COc1ccc(-c2c(-c3ccccn3)nc3n2CCC3)cc1 [OSA_000823]	
	16 (≈ 50.1 µM)								c1ccc(-c2nc3n(c2-c2ccc4c(c2)OCCO4)CCC3)nc1 [OSA_000819]	
									Cc1ccc(-c2c(-c3ccccn3)nc3cc(Cl)ccn23)cc1 [compound 978]	MIC ([3]; 16 h, read-out: MRSA MIC): 4 µg/mL (≈ 12.5 µM); MIC ([3]; read-out: MRSA MIC): 4 µg/mL (≈ 12.5 µM); MIC ([9]; read-out: VRE MIC): 8 µg/mL (≈ 25 µM); fraction unbound ([4]; read-out: Human PPB (converted)): 0.01; chromatographic logD (LogD7.4 (Chrom Log D); pH 7.4, read-out: LogD7.4): 3.1; solubility (Aqueous solubility; read-out: Aqueous Solubility): 5 µM (≈ 1.6 µg/mL); hepatocyte CLint ([6]; rat, hepatocytes, Figure 4, read-out: Rat Hep CLint): 104 µL/min/1e6 cells; microsomal CLint ([7]; human, liver microsomes, read-out: HLM CLint): 65.6 µL/min/mg
4		8 (≈ 21.8 µM)	32 (≈ 87.3 µM)	0.0085	8 (≈ 2.93 µg/mL)	8 (≈ 21.8 µM)	> 300	100	COc1ccc2nc(-c3ccccn3)c(N(C)c3cc(F)cc(F)c3)n2c1 [OSA_000998]	MIC (VSE): 16 µg/mL (≈ 43.7 µM)
2.2		> 32	> 32	0.21	723 (≈ 163 µg/mL)			> 300	COc1ccn2cc(-c3ccccn3)nc2c1 [OSA_000856]	MRC5 TC50 [2]: 51.6 µM; Rat Hep CLint (NEU) ([6]; rat hepatocytes, NEU): 52.9 uL/min/10x6 cells; PMM TC50 [8]: 64 µM
> 4.2									CC(C)CN(c1ccc(F)cc1)c1c(-c2ccccn2)nc2ccc(F)cn12 [OSA_001024]	MIC [3, 10]: 8 µg/mL (≈ 21.1 µM); fraction unbound [4, 11]: 0.0014; solubility (Aqueous solubility; [13]): 17 µM (≈ 6.43 µg/mL); MIC [5, 14]: 8 µg/mL (≈ 21.1 µM); hepatocyte CLint [6, 15]: 117 µL/min/1e6 cells; microsomal CLint ([7]; human liver microsomes, NEU, read-out: HLM CLint (uL/min/mg protein) (NEU)): 51.2 µL/min/mg
3.5		16 (≈ 45.9 µM)		0.026	26 (≈ 9.06 µg/mL)	16 (≈ 45.9 µM)	> 300	65.9	COc1cccn2c(N(C)c3ccc(F)cc3)c(-c3ccccn3)nc12 [OSA_001001]	
3.3		> 32		0.034	26 (≈ 8.74 µg/mL)	> 32	209	127	CN(c1ccc(F)cc1)c1c(-c2ccccn2)nc2c(F)cccn12 [OSA_001006]	
4.2		16 (≈ 40.3 µM)		0.0018	4 (≈ 1.59 µg/mL)	16 (≈ 40.3 µM)	> 300	61.6	CN(c1ccc(F)cc1)c1c(-c2ccccn2)nc2ccc(Br)cn12 [OSA_001003]	
